Source: paper PMC12514245, “Impaired migration and lung invasion of human melanoma by a novel small molecule targeting the transmembrane domain of death receptor p75^NTR” (EMBO Molecular Medicine, 2025)
“And” between values parts separate entries of the source, which are not always exact repeats. Equal values may be shown once.

What was measured:
[1] = biological target: T1, p75^NTR TMD I252A (Homo sapiens, UniProt P08138, I252A); assay: AraTM assay, I252A mutant p75NTR TMD; assay type: cell-based; conditions: for GFP/OD630, p75NTR I252A, Mean: N=3;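 on GFP/OD630, p75NTR I252A, Mean: 100% is wild-type TMD GFP/OD630 signal without drug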;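 on GFP/OD630, p75NTR I252A, n1-n3: 100% is wild-type TMD GFP/OD630 signal without drug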
T1 construct: Comparison of wild-type (WT) p75^NTR TMD and I252A, P253G and V254A mutants in the AraTM assay; expressed in transfected cells; host or cells: E. coli AS19 (LPS-negative)
T1 sequence (P08138 250-275 I252A): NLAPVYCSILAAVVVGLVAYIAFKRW

[2] = biological target: T2, p75^NTR TMD P253G (Homo sapiens, UniProt P08138, P253G); assay: AraTM assay, P253G mutant p75NTR TMD; assay type: cell-based; conditions: for GFP/OD630, p75NTR P253G, Mean: N=3;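 on GFP/OD630, p75NTR P253G, Mean: 100% is GFP/OD630 of wild-type p75NTR TMD without drug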;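 on GFP/OD630, p75NTR P253G, n1-n3: 100% is GFP/OD630 of wild-type p75NTR TMD without drug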
T2 construct: Comparison of wild-type (WT) p75^NTR TMD and I252A, P253G and V254A mutants in the AraTM assay; expressed in transfected cells; host or cells: E. coli AS19 (LPS-negative)

[3] = test system: A875 melanoma cells (NT); assay: Cleaved PARP western blot (apoptosis), A875 NT; assay type: cell-based, human
Procedure: One of the main biological readouts of p75^NTR activity in response to neurotrophins is the induction of caspase-mediated apoptotic cell death (Underwood and Coulson, [2008]; Friedman, [2010]; Ibáñez and Simi, [2012]).
COS7, A875 and WM115 cell lines were cultured under standard conditions in DMEM supplemented with 10% fetal calf serum, 100 units/ml penicillin, […] streptomycin, and 2.5 mM glutamine. All cells were authenticated and tested for mycoplasma contamination. A875-NT (control) and A875 shp75 (knockdown) cell lines were described previously (Goh et al, [2018]).

[4] = test system: A875 shp75 cells; assay: Wound healing cell motility assay, A875 shp75; assay type: cell-based, human; conditions: for Wound area, Mean: N=3; for Wound area (Fold): A875 shp75, 1uM, 0 h
Procedure: For wound healing assay, cells were grown until confluency and subjected to a wound across the cell mono-layer. Cells were then incubated with serum-free media either with DMSO or a small molecule (with or without 5 µM Q_VD_poH) and imaged at specific time-points. Cell migration is reflected as fold change in wound area over time.

[5] = 5μM Q_VD_poH + 10μM Div17E5, 0 hours
[6] = 5μM Q_VD_poH + 10μM Div17E5, 3 hours
[7] = 5μM Q_VD_poH + 10μM Div17E5, 6 hours
[8] = 5μM Q_VD_poH + 10μM Div17E5, 9 hours
[9] = 5μM Q_VD_poH + 10μM Div17E5, 12 hours
[10] = 5μM Q_VD_poH + 10μM Div17E5, 15 hours
[11] = 5μM Q_VD_poH + 10μM Div17E5, 18 hours
[12] = 5μM Q_VD_poH + 10μM Div17E5, 21 hours
[13] = 5μM Q_VD_poH + 10μM Div17E5, 24 hours

T2 sequence (P08138 251-272 P253G limits assumed): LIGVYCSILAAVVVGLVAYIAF

## Oc1ccc(-c2cncc(Nc3ccc(Br)c(Cl)c3)n2)cc1 [Div17E5]
[1]
  effect of Ile252 mutation on compound activity in AraTM assay: abolished
[1]; Div17E5 7.5 uM
  GFP/OD630, p75NTR I252A, n1-n3: 99% and 104% and 92%
  GFP/OD630, p75NTR I252A, Mean: 98%
[1]; Div17E5 15 uM
  GFP/OD630, p75NTR I252A, n1-n3: 98% and 107% and 87%
  GFP/OD630, p75NTR I252A, Mean: 97%
[1]; Div17E5 20 uM
  GFP/OD630, p75NTR I252A, n1-n3: 96% and 91% and 100%
  GFP/OD630, p75NTR I252A, Mean: 96%
[1]; Div17E5 50 uM
  GFP/OD630, p75NTR I252A, n1-n3: 99% and 106% and 92%
  GFP/OD630, p75NTR I252A, Mean: 99%
[2]
  effect of Pro253 mutation on compound activity in AraTM assay: had no effect
[2]; Div17E5 7.5 uM
  GFP/OD630, p75NTR P253G, n1-n3: 62% and 68% and 61%
  GFP/OD630, p75NTR P253G, Mean: 64%
[2]; Div17E5 15 uM
  GFP/OD630, p75NTR P253G, n1-n3: 61% and 77% and 66%
  GFP/OD630, p75NTR P253G, Mean: 68%
[2]; Div17E5 20 uM
  GFP/OD630, p75NTR P253G, n1-n3: 59% and 49% and 56%
  GFP/OD630, p75NTR P253G, Mean: 55%
[2]; Div17E5 50 uM
  GFP/OD630, p75NTR P253G, n1-n3: 57% and 56% and 59%
  GFP/OD630, p75NTR P253G, Mean: 57%
[3]
  apoptosis (cleavage of PARP): induced apoptosis
[3]; 0.5uM
  Cleaved PARP normalized to DMSO, individual replicates: 2.699 and 3.180 and 5.109
  Cleaved PARP/actin, individual replicates: 0.023 and 0.026 and 0.037
[3]; 0.5μM
  Cleaved PARP normalized to DMSO, Average: 3.662
[3]; 1uM
  Cleaved PARP normalized to DMSO, individual replicates: 10.573 and 9.243 and 5.315
  Cleaved PARP/actin, individual replicates: 0.078 and 0.043 and 0.077
[3]; 1μM
  Cleaved PARP normalized to DMSO, Average: 8.377
[3]; 2uM
  Cleaved PARP normalized to DMSO, individual replicates: 25.774 and 23.617 and 17.703
  Cleaved PARP/actin, individual replicates: 0.187 and 0.200 and 0.142
[3]; 2μM
  Cleaved PARP normalized to DMSO, Average: 22.365
[3]; 5uM
  Cleaved PARP normalized to DMSO, individual replicates: 31.874 and 36.234 and 27.415
  Cleaved PARP/actin, individual replicates: 0.231 and 0.306 and 0.220
[3]; 5μM
  Cleaved PARP normalized to DMSO, Average: 31.841
[4]
  wound closure: did not significantly affect wound closure
[4]; [5]
  Wound area, n1-n3: 0.989 Fold and 0.886 Fold and 1.125 Fold
  Wound area, Mean: 1.000 Fold
[4]; [6]
  Wound area, n1-n3: 0.947 Fold and 0.979 Fold and 1.007 Fold
  Wound area, Mean: 0.978 Fold
[4]; [7]
  Wound area, n1-n3: 0.959 Fold and 0.975 Fold and 0.953 Fold
  Wound area, Mean: 0.962 Fold
[4]; [8]
  Wound area, n1-n3: 0.955 Fold and 0.965 Fold and 0.942 Fold
  Wound area, Mean: 0.954 Fold
[4]; [9]
  Wound area, n1-n3: 0.935 Fold and 0.950 Fold and 0.940 Fold
  Wound area, Mean: 0.941 Fold
[4]; [10]
  Wound area, n1-n3: 0.901 Fold and 0.902 Fold and 0.903 Fold
  Wound area, Mean: 0.902 Fold
[4]; [11]
  Wound area, n1-n3: 0.849 Fold and 0.823 Fold
  Wound area, Mean: 0.840 Fold
[4]; [12]
  Wound area, n1-n3: 0.828 Fold and 0.801 Fold and 0.783 Fold
  Wound area, Mean: 0.804 Fold
[4]; [13]
  Wound area, n1-n3: 0.790 Fold and 0.822 Fold and 0.793 Fold
  Wound area, Mean: 0.801 Fold
[4]; 10μM Div17E5, 0 hours
  Wound area, n1-n3: 1.039 Fold and 1.010 Fold and 0.951 Fold
  Wound area, Mean: 1.000 Fold
[4]; 10μM Div17E5, 3 hours
  Wound area, n1-n3: 0.987 Fold and 0.961 Fold and 0.970 Fold
  Wound area, Mean: 0.973 Fold
[4]; 10μM Div17E5, 6 hours
  Wound area, n1-n3: 0.982 Fold and 0.933 Fold and 0.919 Fold
  Wound area, Mean: 0.945 Fold
[4]; 10μM Div17E5, 9 hours
  Wound area, n1-n3: 0.959 Fold and 0.914 Fold and 0.881 Fold
  Wound area, Mean: 0.918 Fold
[4]; 10μM Div17E5, 12 hours
  Wound area, n1-n3: 0.961 Fold and 0.889 Fold and 0.887 Fold
  Wound area, Mean: 0.912 Fold
[4]; 10μM Div17E5, 15 hours
  Wound area, n1-n3: 0.930 Fold and 0.849 Fold and 0.852 Fold
  Wound area, Mean: 0.877 Fold
[4]; 10μM Div17E5, 18 hours
  Wound area, n1-n3: 0.858 Fold and 0.787 Fold and 0.795 Fold
  Wound area, Mean: 0.813 Fold
[4]; 10μM Div17E5, 21 hours
  Wound area, n1-n3: 0.855 Fold and 0.772 Fold and 0.767 Fold
  Wound area, Mean: 0.798 Fold
[4]; 10μM Div17E5, 24 hours
  Wound area, n1-n3: 0.867 Fold and 0.765 Fold and 0.792 Fold
  Wound area, Mean: 0.808 Fold
[4]; Mean
  Wound area (Fold): 1.000 Fold
[4]; n1
  Wound area (Fold): 0.980 Fold
